Source: publication PMC3834928, “SNEDDS Containing Poorly Water Soluble Cinnarizine; Development and in Vitro Characterization of Dispersion, Digestion and Solubilization” (Pharmaceutics, 2012)
Values after ≈ are worked out from the molar mass of the structure shown.

How the values were obtained:
[1] = set-up: method as in PMID 7616366; conditions: dogs, n = 4, mean ± SEM; cited from earlier work
[2] = cited from earlier work
[3] = log POct/W; cited from earlier work
[4] = Colloidal dispersion of SNEDDSs in FaSSGF pH 1.6 (USP II apparatus); format: physicochemical; conditions: FaSSGF pH 1.6, 37 °C, during the experiment (60 min), all four SNEDDSs
Protocol: (§1) The concentration of cinnarizine was determined using a HPLC method. A HPLC system (Hitachi, Merck, Darmstadt, Germany) equipped with a D-7000 interface, an L-7200 autosampler, a L-7100 pump, a L-7300 column oven (35 °C), and a L-7400 UV detector or a L-7480 fluorescence detector. Data was processed by using HPLC System Manager Version 4.0 from Merck (Darmstadt, Germany). Chromatographic separation was obtained using a Luna C18 150 × 4.6 mm, 5 µm, column and a C18 guard column (Phenomenex, Torrance, CA, USA). The mobile phase consisted of 50% (v/v) acetonitrile and 50% (v/v) 20 mM ammonium dihydrogen phosphate monobasic buffer, pH 4.5. The temperature of the column was maintained at 35 °C and the flow rate and injection volume were 1 mL/min and 25 µL, respectively. The UV detection was carried out at 253 nm and quantification was performed from peak areas using a six point linear standard curve ranging from 0.25–4 µg/mL.
Colloidal dispersion studies were performed in 250 mL fasted-state, simulated gastric fluid (FaSSGF) at pH 1.6. […] A quantity of 1 g of each SNEDDS containing 25 mg cinnarizine was weighed on a watch glass, and the glass with formulation was gently slid down the vessel wall to the bottom of the dissolution vessel and thereby introduced into the dispersion medium. […]

[5] = Solubility of cinnarizine in SNEDDSs, excipients and buffer (excess drug, end-over-end rotation, HPLC); format: physicochemical
Protocol: An excess of cinnarizine was added to the SNEDDSs, selected excipients (sesame oil and oleic acid) and 100 mM TRIS maleate buffer, pH 6.5. The resulting suspensions were placed in an end-over-end rotating device protected from light at 25 °C for the SNEDDSs and at 37 °C for the excipients and buffer; the temperatures were selected for storage purpose and for its physiological relevance, respectively. Samples were withdrawn at specified time points, i.e., 28, 50, and 72 h for the SNEDDSs, 22 h and 48 h for the excipients, and at 51 h and 75 h for the buffer. Samples were centrifuged at 15,000 rpm for 45 min (Biofuge 15, Hereaus-Sepatech, Oterode, Germany). Between two and three drops of supernatant were weighed in a 10 mL volumetric flask and diluted with ethanol. This solution was further diluted with mobile phase to an appropriate concentration. Samples from the buffer were diluted with mobile phase. Quantification of cinnarizine was performed as described in the analytical section. The determination of solubility was considered attained when samples from two consecutive time points varied by less than 5%. The solubilities were determined in triplicate.
as §1

[6] = cited from earlier work; remark: listed apart in the source

Precipitation of cinnarizine during colloidal dispersion [4] | solubility ([5]; 100 mM TRIS maleate buffer pH 6.5, 37 °C, n = 3, read-out: Aqueous solubility (37 °C)) [µg/mL] | Cinnarizine solubility in SNEDDS I ([5]; in SNEDDS I preconcentrate, 25 °C, mean ± SD (n = 3)) [mg/g] | Cinnarizine solubility in SNEDDS II ([5]; in SNEDDS II preconcentrate, 25 °C, mean ± SD (n = 3)) [mg/g] | Cinnarizine solubility in SNEDDS III ([5]; in SNEDDS III preconcentrate, 25 °C, mean ± SD (n = 3)) [mg/g] | Cinnarizine solubility in SNEDDS IV ([5]; in SNEDDS IV preconcentrate, 25 °C, mean ± SD (n = 3)) [mg/g] | Cinnarizine solubility in oleic acid ([5]; in oleic acid, 37 °C, mean ± SD (n = 3)) [mg/g] | Cinnarizine solubility in sesame oil ([5]; in sesame oil, 37 °C, mean ± SD (n = 3)) [mg/g] | Compound | Bioavailability from a conventional capsule [1] | Bioavailability from an aqueous suspension formulation [1] | pKa [2] | Log P [3] | Cinnarizine solubility in oleic acid (previous study) ([6]; in oleic acid, 25 °C) [mg/g] | Solubility of cinnarizine in water at low pH ([6]; pH 1.3) [µg/mL] | pKa in water ([2]; in water) | apparent pKa in mixed bile acid/phospholipid micelles ([2]; incorporated into mixed bile acid/phospholipid micelles)
not observed | 0.39 ± 0.1 (≈ 1.06 µM) | 67.4 ± 0.9 | 58.8 ± 0.5 | 36.4 ± 0.7 | 28.3 ± 0.8 | 335 ± 3 | 25.7 ± 0.4 | C(=C\c1ccccc1)/CN1CCN(C(c2ccccc2)c2ccccc2)CC1 [Cinnarizine, cinnarizine] | 0.8% ± 0.4% | 8% ± 4% | 1.95 [18] | 5.77 [16] | 237 | 853 | – | –
– | – | – | – | – | – | – | – | CCCCCCCC/C=C\CCCCCCCC(=O)O [oleic acid] | – | – | – | – | – | – | 9.85 | 6.5
